Laboratory results from patent US7053052B2, “Therapies involving mutated heat shock transcription factor” (priority 1997, dated 2006).
Entries after “also recorded” stand apart in the source; their conditions may differ.

Tested on: HeLa-CAT cells
Test: Cell proliferation and cell cycle distribution (FACS, propidium iodide)
Assay type: cell-based, human
Description: This cell cycle arrest was followed by flow cytometry of propidium iodide-stained cells. To determine whether mutHSF-induced expression (enhanced expression) of hsp protects the cells from hyperthermia-induced cell cycle arrest, cells were either co-transfected with a CMV promoter-linked mutHSF gene construct and a GFP construct, or singly transfected with the GFP construct. After heat treatment and postincubation as described herein, cells were sorted based on GFP fluorescence. […]
For fluorescence-activated cell sorting, cells from cultures transfected or co-transfected with EGFP-expressing construct were removed from tissue culture dishes by treatment with 0.04% EDTA in phosphate-buffered saline (PBS) and were resuspended in PBS. […] Excitation wavelength was 488 nm, and detection wave lengths were 650 nm (long pass) for propidium iodide and 520 nm (narrow band) for detection of EGFP fluorescence. […]
Protein synthesis dropped to about 10% of the normal rate during heat shock but, after a 1 hour recovery period, returned to pre-shock level in HSF1(+)-expressing but not control cells. […] Fluorescence-activated cell sorting and analyses of DNA content were performed on a FACStar Plus machine (Becton-Dickinson, San Jose, Calif.) configured as described elsewhere (Parks, D. R. et al., In: The Handbook of Experimental Immunology, 4th Edition. Vol. 29. pp. 1–29, 1986). […]

Q: Which results are given for human HSF1d202–316 [HSF1(+)]?
A: heat-induced G2/M cell cycle arrest (43° C. heat shock, GFP-positive cells, listed as mutHSF): much lower proportion of cells in G2/M phase; also recorded: only a small fraction; cell proliferation (FACS-isolated, days two to four): severely inhibited cell proliferation
